≈ marks a conversion by molar mass, not a printed value. Where a name gives a salt, the structure may show the parent alone.
How the values were obtained:
Assay type in all cases: functional
MOLT-4 [1] = test: Growth inhibition of Homo sapiens (human) MOLT4 cells at 100 uM after 48 hr by SRB assay; conditions: MOLT-4, 48 h, read-out: GI
HepG2 [2] = test: Growth inhibition of Homo sapiens (human) HepG2 cells at 100 uM after 48 hr by SRB assay; conditions: HepG2, 48 h, read-out: GI
Liver microsome = test: Antioxidant activity in Wistar albino Rattus norvegicus (rat) liver microsomes assessed as inhibition of lipid peroxidation after 1 hr by TBARS method
MCF7 [3] = test: Growth inhibition of Homo sapiens (human) MCF7 cells at 100 uM after 48 hr by SRB assay; conditions: MCF7, 48 h, read-out: GI
MCF7 [4] = test: Cytotoxicity against Homo sapiens (human) MCF7 cells after 48 hr by SRB assay; conditions: MCF7, 48 h
HepG2 [5] = test: Cytotoxicity against Homo sapiens (human) HepG2 cells after 48 hr by SRB assay; conditions: HepG2, 48 h
MOLT-4 [6] = test: Cytotoxicity against Homo sapiens (human) MOLT4 cells after 48 hr by SRB assay; conditions: MOLT-4, 48 h

Row | SMILES | inhibition of growth at 100 µM (MOLT-4 [1]) [%] | inhibition of growth at 100 µM (HepG2 [2]) [%] | IC50 (Liver microsome) [µg/mL] | inhibition of growth at 100 µM (MCF7 [3]) [%] | GI50 (MCF7 [4]) [µM] | GI50 (HepG2 [5]) [µM] | GI50 (MOLT-4 [6]) [µM]
1 | O=c1cc(-c2ccc(Cl)cc2)oc2ccccc12 | < 50 | < 50 | 60 (≈ 234 µM) | < 50 | – | – | –
2 | O=c1cc(-c2ccc(Cl)c([N+](=O)[O-])c2)oc2ccccc12 | – | – | 80 (≈ 265 µM) | – | 40.9 | 93.8 | 50.7
3 | O=c1cc(-c2cccc([N+](=O)[O-])c2)oc2ccccc12 | – | – | 60 (≈ 225 µM) | – | 31 | 94.9 | 36
4 | COc1ccc(-c2cc(=O)c3ccccc3o2)cc1OC [3',4'-DIMETHOXYFLAVONE] | < 50 | < 50 | 40 (≈ 142 µM) | < 50 | – | – | –
5 | COc1cc(OC)cc(-c2cc(=O)c3ccccc3o2)c1 [3',5'-DIMETHOXYFLAVONE] | – | – | 40 (≈ 142 µM) | – | < 0.1 | 58.8 | < 0.1
6 | COc1ccc(-c2cc(=O)c3ccccc3o2)cc1 [4'-METHOXYFLAVONE] | – | < 50 | 60 (≈ 238 µM) | – | 61.8 | – | 99.2
7 | O=c1cc(-c2ccccc2)oc2cc(O)cc(O)c12 [CHRYSIN] | – | < 50 | 60 (≈ 236 µM) | – | 69 | – | 58.6
8 | COc1cccc2c1C(=O)c1c(O)c3c(c(O)c1C2=O)C[C@@](O)(C(=O)CO)C[C@@H]3O[C@H]1C[C@H](N)[C@H](O)[C@H](C)O1 [DOXORUBICIN HYDROCHLORIDE] | – | – | – | – | < 0.1 | < 0.1 | < 0.1
9 | O=c1cc(-c2ccccc2)oc2ccccc12 [FLAVONE] | < 50 | – | 100 (≈ 450 µM) | – | 69.3 | 50.6 | –
10 | O=c1c(O)c(-c2ccc(O)c(O)c2)oc2cc(O)cc(O)c12 [QUERCETIN] | – | – | 20 (≈ 66.2 µM) | – | – | – | –

Source: ChEMBL document CHEMBL3044587, “Synthesis of B-ring substituted flavones and evaluation of their antitumor and antioxidant activities” (Med Chem Res, 2013)
